Assay results published in patent publication US11324798B2, “Materials and methods for treatment of inflammation” (CYTOGEL PHARMA, LLC, priority 2010, dated 2022).
Several values for one entry are separate records, joined by “and”; a condition that tells them apart may be missing. Identical values can stand only once.

Key:
[1] = test system: CGRP release from isolated rat tracheae; assay: Electrical field stimulation (EFS)-evoked release of CGRP from isolated rat tracheae, radioimmunoassay; type: cell-based; settings: for Release of CGRP into the incubation medium / Absolute release of CGRP: individual experiments 1-5; for Release of CGRP into the incubation medium, Mean / Absolute release of CGRP, Mean: mean of 5 experiments
Procedure: (§1) For the in vitro release experiments, a 10 mg/ml (14.62 mM; MW 684) stock solution of CYT-1010 was made in DMSO, which was further diluted with the oxygenated Krebs solution used in the organ bath: 5.5 μl of this CYT-1010 stock solution was added into 40 ml Krebs to make the highest applied 2 μM concentration of compound CYT-1010. Further dilutions to obtain the lower concentrations were prepared with Krebs solution.
(§2) The incubation media containing the respective CYT-1010 concentrations were administered in the stimulated and post-stimulated 8-min fractions.
(§3) Since even the highest, 2 μM, concentration of CYT-1010 solution contained negligible amount of DMSO, simple Krebs solution was used in the control experiments.
(§4) Rats were exsanguinated in deep anaesthesia (sodium thiobarbital, 50 mg/kg i.p.), then the whole trachea was removed and cleaned of fat and adhering connective tissues. Tracheae from two rats were placed into the same 1.8 ml organ bath to obtain sufficient amount of released peptide and perfused (1 ml/min) with pH-(7.2) controlled oxygenized Krebs solution for 60 minutes (equilibration period) at 37° C. temperature. After discontinuation of the flow, the solution was changed three times for eight minutes to produce pre-stimulated, stimulated, post-stimulated fractions.
(§5) Electrical field stimulation (40 V, 0.1 ms, 10 Hz for 120 s; 1200 pulses) was performed to elicit neurotransmitter release at the beginning of the second 8-minute period. Stimulation with 0.1 ms pulse width selectively activates very fast Na^+ channels, which are only present in the membrane of neural structures (Birmingham and Wilson, 1963; Coburn and Tomita 1973; Szolcsányi and Barthó, 1982); therefore, it excites nerve endings without influencing other excitable cells in the tracheae such as smooth muscle cells.
(§6) Krebs solution was used in the pre-stimulated fraction for determining the basal CGRP outflow. During the stimulated and post-stimulated fractions, the incubation medium contained the examined concentrations of CYT-1010 (10, 100, 500, 1000 and 2000 nM) in separate experiments, and only one concentration was applied to the same tracheae to avoid neuropeptide depletion. In each group, 5 experiments were performed in parallel in 5 perfusion systems to provide n=5 data per group (10 tracheae per group).
(§7) 60 male Wistar rats (250-300 g) altogether were divided into 6 experimental groups: Group 1: controls (n=10); Group 2: 10 nM CYT-1010 (n=10); Group 3: 100 nM CYT-1010 (n=10); Group 4: 500 nM CYT-1010 (n=10); Group 5: 1000 nM CYT-1010 (n=10); and Group 6: 2000 nM CYT-1010 (n=10). The total study was performed on three experimental days, two groups every occasion.
(§8) Calcitonin gene-related peptide (CGRP) and substance P (SP) concentrations were determined from 400-400 μl samples of organ fluid of the preparations by means of radioimmunoassay methods described in Nemeth et al., 1996, 1998, 1999, 2006; Helyes et al., 1997, 2001, 2006; Borzsei et al., 2008). Each of these publications is incorporated herein by reference in its entirety.
(§9) The released amount of the peptides CGRP and SP was calculated as fmol peptide per mg wet tissue (trachea). The absolute release in response to EFS in each experiment was calculated by adding peptide release in the second and third 8-min fractions and then taking off the basal release measured in the first (pre-stimulated) fraction. The detection limits of the RIA assays were 0.2 fmol/tube and 2 fmol/tube for CGRP and SP, respectively.

[2] = test system: SP release from isolated rat tracheae; assay: Electrical field stimulation (EFS)-evoked release of SP from isolated rat tracheae, radioimmunoassay; type: cell-based; settings: for SP Release into the incubation medium / Absolute release of SP: individual experiments 1-5; for SP Release into the incubation medium, Mean / Absolute release of SP, Mean: mean of 5 experiments
Procedure: as §1, §2, §3, §4, §5, §6, §7, §8, §9

[3] = 1 microM, during stimulation (stimulated fraction)
[4] = 2 microM, after stimulation (post-stimulated fraction)
[5] = 2 microM, before stimulation (pre-stimulated fraction)
[6] = 2 microM, during stimulation (stimulated fraction)
[7] = 10-2000 nM added to the second and third fractions

NC(Cc1ccc(O)cc1)C(=O)NC1CCCCNC(=O)C(Cc2ccccc2)NC(=O)C(Cc2c[nH]c3ccccc23)NC1=O [CYT-1010, H-Tyr-c-[D-Lys-Trp-Phe]]
Release of CGRP into the incubation medium ([1]; 1 microM, during stimulation (stimulated 8-min fraction)): 0.510 fmol/mg wet tissue and 0.433 fmol/mg wet tissue and 0.170 fmol/mg wet tissue (2×) and 0.161 fmol/mg wet tissue
Release of CGRP into the incubation medium, Mean [1, 3]: 0.289 fmol/mg wet tissue
Absolute release of CGRP ([1]; 1 microM): 0.371 fmol/mg wet tissue and 0.325 fmol/mg wet tissue and 0.083 fmol/mg wet tissue (2×) and 0.077 fmol/mg wet tissue
Absolute release of CGRP, Mean ([1]; 1 microM): 0.188 fmol/mg wet tissue
CGRP release, % increase above baseline ([1]; 2 microM, after stimulation): −4.59%
Release of CGRP into the incubation medium ([1]; 2 microM, after stimulation (post-stimulated 8-min fraction)): 0.200 fmol/mg wet tissue and 0.161 fmol/mg wet tissue and 0.133 fmol/mg wet tissue and 0.018 fmol/mg wet tissue and 0.167 fmol/mg wet tissue
Release of CGRP into the incubation medium, Mean [1, 4]: 0.136 fmol/mg wet tissue
CGRP release, % increase above baseline ([1]; 2 microM, before stimulation): 0.00%
Release of CGRP into the incubation medium ([1]; 2 microM, before stimulation (pre-stimulated 8-min fraction)): 0.102 fmol/mg wet tissue and 0.231 fmol/mg wet tissue and 0.097 fmol/mg wet tissue and 0.148 fmol/mg wet tissue and 0.134 fmol/mg wet tissue
Release of CGRP into the incubation medium, Mean [1, 5]: 0.142 fmol/mg wet tissue
CGRP release, % increase above baseline ([1]; 2 microM, during stimulation): 204.09%
Release of CGRP into the incubation medium ([1]; 2 microM, during stimulation (stimulated 8-min fraction)): 0.198 fmol/mg wet tissue and 0.584 fmol/mg wet tissue and 0.388 fmol/mg wet tissue and 0.645 fmol/mg wet tissue and 0.353 fmol/mg wet tissue
Release of CGRP into the incubation medium, Mean [1, 6]: 0.433 fmol/mg wet tissue
Absolute release of CGRP ([1]; 2 microM): 0.192 fmol/mg wet tissue and 0.284 fmol/mg wet tissue and 0.326 fmol/mg wet tissue and 0.366 fmol/mg wet tissue and 0.253 fmol/mg wet tissue
Absolute release of CGRP, Mean ([1]; 2 microM): 0.284 fmol/mg wet tissue
Effect on stimulation-evoked CGRP release [1, 7]: significantly inhibited
Effect on CGRP release in the third, post-stimulated fraction ([1]; 100 and 500 nM): significantly inhibited
EC50 ([1]; sigmoidal concentration-response curve, non-linear least square fit, 10-2000 nM, read-out: EC50 for inhibition of electrically-evoked CGRP release): 40.6 nM
Effect on CGRP release in the third, post-stimulated fraction ([1]; two highest concentrations (1000 and 2000 nM)): abolished
Inhibition of EFS-evoked SP outflow ([2]; 500 nM, 0.5 µM): 64.3% and 64%
Inhibition of EFS-evoked SP outflow ([2]; 1000 nM (maximal inhibition), 1 µM): 71.8% and 72%
SP release, % increase above baseline ([2]; 1 microM, after stimulation): 16.32%
SP Release into the incubation medium ([2]; 1 microM, after stimulation (post-stimulated fraction)): 1.663 fmol/mg wet tissue and 1.966 fmol/mg wet tissue and 1.892 fmol/mg wet tissue and 1.551 fmol/mg wet tissue and 1.397 fmol/mg wet tissue
SP Release into the incubation medium, Mean ([2]; 1 microM, after stimulation): 1.694 fmol/mg wet tissue
SP release, % increase above baseline ([2]; 1 microM, before stimulation): 0.00%
SP Release into the incubation medium ([2]; 1 microM, before stimulation (pre-stimulated fraction)): 1.398 fmol/mg wet tissue and 1.806 fmol/mg wet tissue and 1.860 fmol/mg wet tissue and 1.412 fmol/mg wet tissue and 0.805 fmol/mg wet tissue
SP Release into the incubation medium, Mean ([2]; 1 microM, before stimulation): 1.456 fmol/mg wet tissue
SP release, % increase above baseline ([2]; 1 microM, during stimulation): 13.32%
SP Release into the incubation medium [2, 3]: 1.558 fmol/mg wet tissue and 1.948 fmol/mg wet tissue and 1.992 fmol/mg wet tissue and 1.422 fmol/mg wet tissue and 1.331 fmol/mg wet tissue
SP Release into the incubation medium, Mean ([2]; 1 microM, during stimulation): 1.650 fmol/mg wet tissue
Absolute release of SP ([2]; 1 microM): 0.425 fmol/mg wet tissue and 0.302 fmol/mg wet tissue and 0.164 fmol/mg wet tissue and 0.149 fmol/mg wet tissue and 1.118 fmol/mg wet tissue
Absolute release of SP, Mean ([2]; 1 microM): 0.432 fmol/mg wet tissue
SP release, % increase above baseline ([2]; 2 microM, after stimulation): 6.72%
SP Release into the incubation medium [2, 4]: 2.348 fmol/mg wet tissue and 1.531 fmol/mg wet tissue and 2.246 fmol/mg wet tissue and 1.543 fmol/mg wet tissue and 1.944 fmol/mg wet tissue
SP Release into the incubation medium, Mean ([2]; 2 microM, after stimulation): 1.922 fmol/mg wet tissue
SP release, % increase above baseline ([2]; 2 microM, before stimulation): 0.00%
SP Release into the incubation medium [2, 5]: 2.406 fmol/mg wet tissue and 1.582 fmol/mg wet tissue and 2.020 fmol/mg wet tissue and 1.132 fmol/mg wet tissue and 1.867 fmol/mg wet tissue
SP Release into the incubation medium, Mean ([2]; 2 microM, before stimulation): 1.801 fmol/mg wet tissue
SP release, % increase above baseline ([2]; 2 microM, during stimulation): 56.23%
SP Release into the incubation medium [2, 6]: 3.130 fmol/mg wet tissue and 2.398 fmol/mg wet tissue and 2.334 fmol/mg wet tissue and 2.078 fmol/mg wet tissue and 4.132 fmol/mg wet tissue
SP Release into the incubation medium, Mean ([2]; 2 microM, during stimulation): 2.814 fmol/mg wet tissue
Absolute release of SP ([2]; 2 microM): 0.666 fmol/mg wet tissue and 0.765 fmol/mg wet tissue and 0.540 fmol/mg wet tissue and 1.357 fmol/mg wet tissue and 2.342 fmol/mg wet tissue
Absolute release of SP, Mean ([2]; 2 microM): 1.134 fmol/mg wet tissue
Effect on stimulation-evoked SP release [2, 7]: significantly inhibited
EC50 ([2]; sigmoidal concentration-response curve, non-linear least square fit, 10-2000 nM, read-out: EC50 for inhibition of electrically-evoked SP release): 34 nM
